Measured values from ChEMBL document CHEMBL1201862, “PubChem BioAssay data set” (2004).
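Method: 48-hour compound exposure of cells in 96-well plates, five concentrations, linear interpolation of endpoints. The concentration for 50% growth inhibition is given as GI50.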 The source made the active and inactive calls. Cut-off read from the data, not from the text of the source: active = GI50 up to about 1.1 µM and inactive = higher.

Key:
Assay in all cases: inhibition of tumour cell growth, NCI panel, 48 h
[1] = test system: KM12
[2] = test system: SK-MEL-5
[3] = test system: OVCAR-5
[4] = test system: MDA-MB-231
[5] = test system: U-251
[6] = test system: SK-MEL-28
[7] = test system: Malme-3M
[8] = test system: SN12C
[9] = test system: PC-3
[10] = test system: IGROV-1
[11] = test system: RPMI-8226
[12] = test system: COLO 205
[13] = test system: CAKI-1
[14] = test system: OVCAR-4
[15] = test system: SF-539
[16] = test system: HL-60
[17] = test system: MDA-MB-435
[18] = test system: UACC-257
[19] = test system: HCC 2998
[20] = test system: EKVX
[21] = test system: T47D
[22] = test system: NCI-H460
[23] = test system: K562
[24] = test system: SW-620
[25] = test system: SF-268
[26] = test system: NCI/ADR-RES
[27] = test system: NCI-H226
[28] = test system: MCF7
[29] = test system: Hs-578T
[30] = test system: BT-549
[31] = test system: UACC-62
[32] = test system: SK-MEL-2
[33] = test system: A549
[34] = test system: TK-10
[35] = test system: MDA-N
[36] = test system: OVCAR-8
[37] = test system: SNB-19
[38] = test system: CCRF-CEM
[39] = test system: LOX IMVI
[40] = test system: ACHN
[41] = test system: NCI-H23
[42] = test system: DU-145
[43] = test system: SF-295
[44] = test system: OVCAR-3
[45] = test system: HT-29
[46] = test system: SK-OV-3
[47] = test system: NCI-H522
[48] = test system: HOP-62
[49] = test system: RXF 393
[50] = test system: M14
[51] = test system: HOP-92
[52] = test system: A498
[53] = test system: MOLT-4
[54] = test system: SNB-75
[55] = test system: HCT-116
[56] = test system: UO-31
[57] = test system: HCT-15
[58] = test system: SR
[59] = test system: 786-0

With CCN(CC)CCCNc1nncc2cc3c([nH]c4ccc(OC)cc43)c(C)c12 the GI50 [1] was 4.2 µM (inactive), the GI50 [2] was 14.7 µM (inactive) and the GI50 [3] was 11.5 µM (inactive). The GI50 [4] was 7.41 µM (inactive), the GI50 [5] was 3.69 µM (inactive) and the GI50 [6] was 15.7 µM (inactive). The GI50 [7] was 13.7 µM (inactive), the GI50 [8] was 6.12 µM (inactive) and the GI50 [9] was 4.01 µM (inactive). The GI50 [10] was 4.14 µM (inactive), the GI50 [11] was 6.84 µM (inactive) and the GI50 [12] was 7.26 µM (inactive). The GI50 [13] was 11.5 µM (inactive), the GI50 [14] was 3.27 µM (inactive) and the GI50 [15] was 3.44 µM (inactive). For the same compound, the GI50 [16] was < 0.01 µM (active), the GI50 [17] was 10.8 µM (inactive) and the GI50 [18] was 17.6 µM (inactive). For the same compound, the GI50 [19] was 6.1 µM (inactive), the GI50 [20] was 15.8 µM (inactive) and the GI50 [21] was 11.8 µM (inactive). For the same compound, the GI50 [22] was 3.63 µM (inactive), the GI50 [23] was 3.34 µM (inactive) and the GI50 [24] was 4.61 µM (inactive). The GI50 [25] was 6.65 µM (inactive), the GI50 [26] was > 100 µM (inactive) and the GI50 [27] was 7.41 µM (inactive). The GI50 [28] was 2.56 µM (inactive), the GI50 [29] was 10.4 µM (inactive) and the GI50 [30] was 16.3 µM (inactive). For the same compound, the GI50 [31] was 17.4 µM (inactive), the GI50 [32] was 17.7 µM (inactive) and the GI50 [33] was 9.82 µM (inactive). For the same compound, the GI50 [34] was 15.3 µM (inactive), the GI50 [35] was 10.4 µM (inactive) and the GI50 [36] was 3.98 µM (inactive). For the same compound, the GI50 [37] was 5.97 µM (inactive), the GI50 [38] was 2.93 µM (inactive) and the GI50 [39] was 3.84 µM (inactive). For the same compound, the GI50 [40] was 8.26 µM (inactive), the GI50 [41] was 10.7 µM (inactive) and the GI50 [42] was 4.03 µM (inactive). For the same compound, the GI50 [43] was 12.6 µM (inactive), the GI50 [44] was 7.05 µM (inactive) and the GI50 [45] was 3.4 µM (inactive). For the same compound, the GI50 [46] was 9.64 µM (inactive), the GI50 [47] was 2.7 µM (inactive) and the GI50 [48] was 4.23 µM (inactive). The GI50 [49] was 5.81 µM (inactive), the GI50 [50] was 12.9 µM (inactive) and the GI50 [51] was 10.1 µM (inactive). The GI50 [52] was 16.4 µM (inactive), the GI50 [53] was 2.3 µM (inactive) and the GI50 [54] was 9.59 µM (inactive). The GI50 [55] was 3.38 µM (inactive), the GI50 [56] was 11.5 µM (inactive) and the GI50 [57] was 19.3 µM. The GI50 [58] was 4.63 µM (inactive) and the GI50 [59] was 4.13 µM (inactive).
With CCOP(=O)(OCC)C(Nc1cccc(F)c1)c1ccccc1 (configuration not stated) the GI50 [1] was 67 µM (inactive), the GI50 [2] was 42.2 µM (inactive) and the GI50 [4] was 75.5 µM (inactive). For the same compound, the GI50 [5] was 74.1 µM (inactive), the GI50 [6] was > 100 µM (inactive) and the GI50 [7] was 50.7 µM (inactive). For the same compound, the GI50 [8] was 75.9 µM (inactive), the GI50 [9] was 50.2 µM (inactive) and the GI50 [10] was > 100 µM (inactive). The GI50 [11] was 29.7 µM (inactive), the GI50 [12] was 34.4 µM (inactive) and the GI50 [13] was > 100 µM (inactive). The GI50 [14] was 59.3 µM (inactive), the GI50 [15] was > 100 µM (inactive) and the GI50 [16] was 18.1 µM (inactive). The GI50 [17] was 78.9 µM (inactive), the GI50 [18] was 45.1 µM (inactive) and the GI50 [19] was 66.1 µM (inactive). For the same compound, the GI50 [20] was 40.5 µM (inactive), the GI50 [21] was 22.7 µM (inactive) and the GI50 [22] was 43.9 µM (inactive). The GI50 [23] was 34.8 µM (inactive), the GI50 [24] was > 10 µM (inactive) and the GI50 [25] was 59 µM (inactive). For the same compound, the GI50 [26] was 34.5 µM (inactive), the GI50 [27] was 93.5 µM (inactive) and the GI50 [28] was 76.6 µM (inactive). The GI50 [29] was 35.9 µM (inactive), the GI50 [30] was > 100 µM (inactive) and the GI50 [31] was 63 µM (inactive). The GI50 [32] was 47.9 µM (inactive), the GI50 [33] was 43.9 µM (inactive) and the GI50 [34] was > 100 µM (inactive). The GI50 [35] was > 100 µM (inactive), the GI50 [36] was 62.2 µM (inactive) and the GI50 [37] was > 100 µM (inactive). The GI50 [38] was 47.1 µM (inactive), the GI50 [39] was 75.7 µM (inactive) and the GI50 [40] was 58.7 µM (inactive). The GI50 [41] was > 100 µM (inactive), the GI50 [42] was > 100 µM (inactive) and the GI50 [43] was 54.7 µM (inactive). For the same compound, the GI50 [44] was 60.5 µM (inactive), the GI50 [45] was 58.1 µM (inactive) and the GI50 [46] was > 100 µM (inactive). The GI50 [47] was 36.1 µM (inactive), the GI50 [48] was > 100 µM (inactive) and the GI50 [49] was 25.2 µM (inactive). For the same compound, the GI50 [50] was 69.5 µM (inactive), the GI50 [51] was 32.7 µM (inactive) and the GI50 [52] was > 100 µM (inactive). The GI50 [53] was 30 µM (inactive), the GI50 [54] was 20.7 µM (inactive) and the GI50 [55] was 44.1 µM (inactive). The GI50 [56] was 44.8 µM (inactive), the GI50 [57] was 44.4 µM and the GI50 [58] was 38.9 µM (inactive). For the same compound, the GI50 [59] was > 100 µM (inactive).
